Calls of active or inactive are those of the source.
Columns and labels:
[1] = target: T1, Alkaline phosphatase, tissue-nonspecific isozyme (Homo sapiens, UniProt P05186)
T1 sequence (P05186 whole entry): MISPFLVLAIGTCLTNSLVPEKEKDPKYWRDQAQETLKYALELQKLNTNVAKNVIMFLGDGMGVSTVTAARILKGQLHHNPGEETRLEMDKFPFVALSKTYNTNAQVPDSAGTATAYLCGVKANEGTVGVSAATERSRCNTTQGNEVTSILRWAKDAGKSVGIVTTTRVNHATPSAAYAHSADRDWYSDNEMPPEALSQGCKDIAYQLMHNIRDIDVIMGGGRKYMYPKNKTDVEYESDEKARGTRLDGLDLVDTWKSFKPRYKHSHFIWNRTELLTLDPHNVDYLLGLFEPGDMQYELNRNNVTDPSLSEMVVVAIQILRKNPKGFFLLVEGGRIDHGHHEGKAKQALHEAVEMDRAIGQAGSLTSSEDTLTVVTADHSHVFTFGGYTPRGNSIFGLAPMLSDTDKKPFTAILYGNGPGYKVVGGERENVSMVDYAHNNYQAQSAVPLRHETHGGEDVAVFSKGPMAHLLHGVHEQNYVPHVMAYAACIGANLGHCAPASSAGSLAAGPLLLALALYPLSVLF

Cytochrome P450 3A4 = Cytochrome P450 3A4 (Homo sapiens, UniProt P08684); conditions: Potency;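 further: confirmatory qHTS run detecting inhibitors and substrates of CYP3A4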
Cytochrome P450 2D6 = Cytochrome P450 2D6 (Homo sapiens, UniProt P10635); assay: qHTS Assay for Inhibitors and Substrates of Cytochrome P450 2D6. [Related pubchem assays: 410 ]; type: ADME; conditions: read-out: Potency
[2] = target: Luciferin 4-monooxygenase (Photinus pyralis, UniProt P08659); assay: In vitro luciferase assay using purified luciferase. [Related pubchem assays: 1299, 1270, 1295, 1375, 1287, 1281, 1293, 1291, 1289, 1280, 465, 1364, 1282, 1372, 1365, 1370, 1367, 1366, 1266, 1373, 1292, 1290, 1302, 1371, 1283, 1271, 1294, 1374, 1368, 1369 ]
HEK293 [3] = assay: Cytotoxicity assay in HEK293 cells. [Related pubchem assays (depositor defined):AID1266, AID1269, AID1270, AID1271, AID1280, AID1281, AID1282, AID1283, AID1287, AID1289, AID1290, AID1291, AID1292, AID1293, AID1294, AID1295, AID1299, AID1302, AID1364, AID1365, AID1366, AID1367, AID1369, AID1370, AID1371, AID1372, AID1373, AID1374, AID1375, AID1384 …; type: functional, cell-based; conditions: Homo sapiens
HEK293 [4] = assay: PMA/Ionomycin induced NF-kB luciferase assay in 293- NF-kB-Luc stable cells. [Related pubchem assays: 1299, 1270, 1295, 1375, 1287, 1281, 1293, 1291, 1289, 1280, 465, 1364, 1282, 1372, 1365, 1370, 1367, 1366, 1269, 1373, 1292, 1290, 1302, 1371, 1283, 1271, 1294, 1374, 1368, 1369 ]; type: functional, cell-based; conditions: Homo sapiens
Estrogen receptor = target: T2, Estrogen receptor (Homo sapiens, UniProt P03372); assay: ERα coactivator recruitment enhancers – biochemical, TR-FRET, ERα LBD, dose response (AID 737)
T2 sequence (P03372 whole entry): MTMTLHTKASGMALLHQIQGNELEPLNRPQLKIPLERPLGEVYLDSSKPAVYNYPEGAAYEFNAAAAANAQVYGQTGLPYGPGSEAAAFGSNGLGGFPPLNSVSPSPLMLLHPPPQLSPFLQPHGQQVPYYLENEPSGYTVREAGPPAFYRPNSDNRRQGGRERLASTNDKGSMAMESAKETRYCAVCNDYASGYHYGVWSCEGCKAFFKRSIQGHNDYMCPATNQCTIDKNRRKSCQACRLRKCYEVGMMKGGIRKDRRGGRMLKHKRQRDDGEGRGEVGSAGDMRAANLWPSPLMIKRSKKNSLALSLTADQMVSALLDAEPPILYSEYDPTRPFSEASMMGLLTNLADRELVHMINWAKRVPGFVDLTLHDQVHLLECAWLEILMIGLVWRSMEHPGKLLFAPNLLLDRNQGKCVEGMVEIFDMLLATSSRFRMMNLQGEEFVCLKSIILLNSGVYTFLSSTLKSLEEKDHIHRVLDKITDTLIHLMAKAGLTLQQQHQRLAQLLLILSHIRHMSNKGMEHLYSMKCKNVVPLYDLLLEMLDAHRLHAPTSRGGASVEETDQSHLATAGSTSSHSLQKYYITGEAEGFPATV

[5] = target: Peroxisome proliferator-activated receptor gamma/Nuclear receptor coactivator 3 (Homo sapiens, UniProt P37231); type: functional;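 further: agonist potency for raising coactivator recruitment to the receptor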
[6] = target: Peroxisome proliferator-activated receptor gamma/Nuclear receptor coactivator 1 (Homo sapiens, UniProt P37231); type: functional;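 further: agonist potency as compounds enhance coactivator SRC-1 recruitment to PPARgamma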
[7] = target: Peroxisome proliferator-activated receptor gamma/Nuclear receptor coactivator 2 (Homo sapiens, UniProt P37231); type: functional;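 further: agonist potency for raising coactivator recruitment to the receptor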
Aspartyl aminopeptidase = Aspartyl aminopeptidase (Plasmodium falciparum 3D7, UniProt Q8I2J3)
Procathepsin L = Procathepsin L (Homo sapiens, UniProt P07711)
[8] = viability of HCT116 lacking mutant beta-catenin – cell-based, human colon tumor, dose response (AID 1045); type: functional;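 further: HCT116 colon tumor cells with beta catenin knocked out; cells exposed to compound for 60 hours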
Streptococcus = assay: GAS UMAA2166 growth inhibition – luminescence, BacTiterGlo, counter-screen for streptokinase expression inhibitor project, dose response (AID 1915); type: functional, organism-based;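 further: potency for reduction of bacterial viability or growth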
[9] = viability of PTEN-deleted HCT116 cells – cell-based, HCT116 PTEN knockout, dose response (AID 1047); type: functional;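 further: HCT116 colon tumor cells with PTEN knocked out; cells exposed to compound for 60 hours before readout; potency for loss of cell viability measured by luminescence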
[10] = target: Serine/threonine-protein phosphatase (Homo sapiens, UniProt Q9BPW0); assay: Counterscreen for inhibitors of PP1: fluorescence-based biochemical high throughput dose response assay to identify inhibitors of Protein Phosphatase 5 (PP5). [Related pubchem assays: 2034 (Summary (PP5 inhibitors)), 1987 (PP5 inhibitors in singlate), 2235 (PP1 inhibitors in singlate)]
Streptokinase A = target: T3, Streptokinase A (Streptococcus pyogenes serotype M1, UniProt P10520); assay: viability-normalized secreted streptokinase activity reduction – plasminogen activation absorbance, OD405, dose response (AID 1914); type: functional, Streptococcus pyogenes M1 GAS;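 further: secreted streptokinase activity via plasminogen activation per viability signal from cell pellet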
T3 sequence (P10520 whole entry): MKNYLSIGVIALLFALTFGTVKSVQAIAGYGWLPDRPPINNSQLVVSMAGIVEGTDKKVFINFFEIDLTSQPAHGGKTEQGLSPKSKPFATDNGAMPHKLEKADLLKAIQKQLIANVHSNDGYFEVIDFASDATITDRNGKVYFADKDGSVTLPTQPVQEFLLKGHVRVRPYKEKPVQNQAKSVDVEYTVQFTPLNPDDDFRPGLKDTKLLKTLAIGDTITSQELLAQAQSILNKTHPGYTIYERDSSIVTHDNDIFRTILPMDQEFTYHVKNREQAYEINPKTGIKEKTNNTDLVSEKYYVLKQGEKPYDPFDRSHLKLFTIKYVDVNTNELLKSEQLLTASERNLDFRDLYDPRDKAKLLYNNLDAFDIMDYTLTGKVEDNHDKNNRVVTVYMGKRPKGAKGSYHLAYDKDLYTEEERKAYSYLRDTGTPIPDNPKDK

[11] = system: Streptococcus sp. 'group A'; assay: Streptococcus pyogenes SK(-)GAS viability under kanamycin – luminescence, BacTiterGlo, confirmation, counter-screen for streptokinase expression inhibitor project, dose response (AID 1900); type: functional, organism-based
[12] = target: Serine/threonine-protein phosphatase PP1-alpha catalytic subunit (Homo sapiens, UniProt P62136); assay: inhibition of protein phosphatase 1 activity – biochemical, fluorescence, dose response (AID 2403);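 further: phosphatase turnover of OMFP into fluorescent 3-O-methylfluorescein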
[13] = antiviral protection against BTV-induced cell death – arbovirus, BSR cells, confirmation (AID 1250); type: functional;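 further: protection from viral cytopathic effect measured as cell viability by ATP luminescence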
[14] = viability of uninfected HEp-2 cells – cell-based, HTS, cytotoxicity control for RSV inhibitor project, dose response (AID 2410); type: functional; conditions: human respiratory syncytial virus
[15] = M. tuberculosis H37Rv growth inhibitors, H37Rv strain (AID 1626); type: functional
[16] = target: Neuropeptide Y receptor type 2 (Homo sapiens, UniProt P49146); type: functional, cell-based;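 further: HEK293 cells expressing the receptor and a CNG channel; stimulus was NPY near EC95 followed by isoproterenol to raise cAMP; antagonist potency measured as restoring cAMP signal that NPY suppresses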
[17] = target: Neuropeptide Y receptor type 1 (Homo sapiens, UniProt P25929); type: functional;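 further: HEK293 cells with a CNG channel challenged with NPY then isoproterenol; potency as antagonist that reverses NPY suppression of cAMP signal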
[18] = Luminescence-based cell-based high throughput dose response assay to identify activators of the DAF-12 from the parasite S. stercoralis (ssDAF-12).; type: functional
Wee1-like protein kinase = Wee1-like protein kinase (Homo sapiens, UniProt P30291); assay: Dose Response Cell-based Assay for Inhibitors of Wee1 Degradation. [Related pubchem assays: 1410, 1321 ]; type: functional
[19] = target: T4, Oxysterols receptor LXR-beta (Homo sapiens, UniProt P55055); assay: LXR agonists, Gal4 luciferase reporter, dose response, counter-screen for ssDAF-12 agonist project, cell-based, luminescence, HEK293, S. stercoralis campaign (AID 720737); type: functional; conditions: read-out: IC50 (the source's name)
T4 sequence (P55055 whole entry): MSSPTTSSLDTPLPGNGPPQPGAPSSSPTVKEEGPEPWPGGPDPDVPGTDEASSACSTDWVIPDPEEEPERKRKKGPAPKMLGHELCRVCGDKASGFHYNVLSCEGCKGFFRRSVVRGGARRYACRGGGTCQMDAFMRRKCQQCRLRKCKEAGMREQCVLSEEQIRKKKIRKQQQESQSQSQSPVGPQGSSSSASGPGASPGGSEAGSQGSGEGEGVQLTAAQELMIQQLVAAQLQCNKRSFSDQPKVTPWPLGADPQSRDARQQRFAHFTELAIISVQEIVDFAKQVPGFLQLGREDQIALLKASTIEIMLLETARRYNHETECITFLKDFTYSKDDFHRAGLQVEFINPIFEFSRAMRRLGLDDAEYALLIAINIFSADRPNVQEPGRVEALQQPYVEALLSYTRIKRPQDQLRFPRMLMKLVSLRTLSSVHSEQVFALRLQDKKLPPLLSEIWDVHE

[20] = target: G2/mitotic-specific cyclin-B1 (Homo sapiens, UniProt P14635); assay: Counterscreen assay for inhibitors of Wee1 degradation: dose response cell-based assay to identify inhibitors of cyclin B degradation. [Related pubchem assays: 1410, 1321 ]; type: functional
[21] = target: T4, Oxysterols receptor LXR-beta; type: functional, cell-based
Vero [22] = assay: Vero 76 cell viability after compound exposure – Vero 76 cells, synthesized analogs, cytotoxicity control for West Nile virus antiviral project, SAR follow-up (AID 2414); type: functional; conditions: Chlorocebus sabaeus
Vero [23] = assay: host cell viability loss, Vero E6 – synthesized analogs, cytotoxicity control for West Nile virus antiviral project, SAR follow-up (AID 2244); type: functional; conditions: Chlorocebus sabaeus
Vero [24] = assay: Vero cell viability after compound exposure – synthesized analogs, set II, cytotoxicity control for West Nile virus antiviral project, SAR follow-up (AID 2402); type: functional; conditions: Chlorocebus sabaeus
[25] = A Cell Based Assay for the Identification of Probe candidate Compounds with Anti- Venezuelan Equine Encephalitis virus. [Related pubchem assays: 2409, 2419, 1621, 2238, 2405, 2024, 2065, 2402, 2414, 1635, 1650, 2244 ]; type: functional

Chain of Neuropeptide Y receptor type 2 (P49146 whole entry): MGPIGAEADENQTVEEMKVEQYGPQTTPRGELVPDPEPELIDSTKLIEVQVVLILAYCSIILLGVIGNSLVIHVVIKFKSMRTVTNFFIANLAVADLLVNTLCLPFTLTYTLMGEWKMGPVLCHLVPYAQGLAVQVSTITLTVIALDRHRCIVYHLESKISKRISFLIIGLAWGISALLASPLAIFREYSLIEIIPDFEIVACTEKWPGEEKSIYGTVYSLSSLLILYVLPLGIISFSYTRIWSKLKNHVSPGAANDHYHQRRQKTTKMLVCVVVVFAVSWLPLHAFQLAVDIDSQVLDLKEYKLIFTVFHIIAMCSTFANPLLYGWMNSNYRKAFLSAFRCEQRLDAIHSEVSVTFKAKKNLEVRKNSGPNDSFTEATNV
Chain of Serine/threonine-protein phosphatase PP1-alpha catalytic subunit (P62136 whole entry): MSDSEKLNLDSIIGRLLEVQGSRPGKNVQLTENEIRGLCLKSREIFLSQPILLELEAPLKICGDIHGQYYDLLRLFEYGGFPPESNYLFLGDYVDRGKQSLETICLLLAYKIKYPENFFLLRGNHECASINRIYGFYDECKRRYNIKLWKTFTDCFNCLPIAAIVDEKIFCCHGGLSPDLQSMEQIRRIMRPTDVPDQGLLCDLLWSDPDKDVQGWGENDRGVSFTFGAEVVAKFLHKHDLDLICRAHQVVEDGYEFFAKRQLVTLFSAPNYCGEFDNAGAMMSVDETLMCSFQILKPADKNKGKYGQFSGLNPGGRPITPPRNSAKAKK
Chain of Procathepsin L (P07711 whole entry): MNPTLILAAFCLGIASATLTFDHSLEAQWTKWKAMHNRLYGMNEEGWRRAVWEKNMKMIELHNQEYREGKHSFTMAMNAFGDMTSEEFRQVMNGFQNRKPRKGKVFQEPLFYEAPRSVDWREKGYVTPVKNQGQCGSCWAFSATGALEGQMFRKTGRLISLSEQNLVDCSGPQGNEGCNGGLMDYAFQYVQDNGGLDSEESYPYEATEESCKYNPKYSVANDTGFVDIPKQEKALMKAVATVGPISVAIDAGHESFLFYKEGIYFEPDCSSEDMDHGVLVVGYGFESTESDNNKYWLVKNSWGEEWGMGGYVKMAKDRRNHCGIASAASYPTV
Chain of Neuropeptide Y receptor type 1 (P25929 whole entry): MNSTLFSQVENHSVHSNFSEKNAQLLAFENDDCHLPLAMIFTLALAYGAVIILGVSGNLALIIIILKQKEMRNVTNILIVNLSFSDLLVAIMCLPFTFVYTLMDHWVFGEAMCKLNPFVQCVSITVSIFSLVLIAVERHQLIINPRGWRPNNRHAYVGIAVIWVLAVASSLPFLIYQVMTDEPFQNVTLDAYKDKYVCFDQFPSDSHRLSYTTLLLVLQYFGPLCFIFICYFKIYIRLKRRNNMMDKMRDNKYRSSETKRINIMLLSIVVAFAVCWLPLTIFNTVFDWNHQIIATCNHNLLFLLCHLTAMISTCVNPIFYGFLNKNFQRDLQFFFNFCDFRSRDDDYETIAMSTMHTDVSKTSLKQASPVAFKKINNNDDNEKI
Chain of Serine/threonine-protein phosphatase (Q9BPW0 whole entry): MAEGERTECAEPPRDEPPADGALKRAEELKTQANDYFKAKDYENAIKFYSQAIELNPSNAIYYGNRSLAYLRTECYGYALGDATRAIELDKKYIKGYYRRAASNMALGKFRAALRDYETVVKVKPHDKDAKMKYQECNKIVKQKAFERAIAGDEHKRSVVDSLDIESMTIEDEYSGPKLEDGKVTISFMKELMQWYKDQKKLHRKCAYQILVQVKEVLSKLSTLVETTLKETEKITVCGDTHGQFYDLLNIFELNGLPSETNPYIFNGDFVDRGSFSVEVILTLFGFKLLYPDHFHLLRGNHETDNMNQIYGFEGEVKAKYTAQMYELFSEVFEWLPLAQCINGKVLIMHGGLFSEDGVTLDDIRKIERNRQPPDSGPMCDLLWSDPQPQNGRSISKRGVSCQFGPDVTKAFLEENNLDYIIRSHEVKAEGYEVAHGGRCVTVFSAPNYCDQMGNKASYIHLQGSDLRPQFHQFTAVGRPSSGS
Chain of Peroxisome proliferator-activated receptor gamma/Nuclear receptor coactivator 3 (P37231 whole entry): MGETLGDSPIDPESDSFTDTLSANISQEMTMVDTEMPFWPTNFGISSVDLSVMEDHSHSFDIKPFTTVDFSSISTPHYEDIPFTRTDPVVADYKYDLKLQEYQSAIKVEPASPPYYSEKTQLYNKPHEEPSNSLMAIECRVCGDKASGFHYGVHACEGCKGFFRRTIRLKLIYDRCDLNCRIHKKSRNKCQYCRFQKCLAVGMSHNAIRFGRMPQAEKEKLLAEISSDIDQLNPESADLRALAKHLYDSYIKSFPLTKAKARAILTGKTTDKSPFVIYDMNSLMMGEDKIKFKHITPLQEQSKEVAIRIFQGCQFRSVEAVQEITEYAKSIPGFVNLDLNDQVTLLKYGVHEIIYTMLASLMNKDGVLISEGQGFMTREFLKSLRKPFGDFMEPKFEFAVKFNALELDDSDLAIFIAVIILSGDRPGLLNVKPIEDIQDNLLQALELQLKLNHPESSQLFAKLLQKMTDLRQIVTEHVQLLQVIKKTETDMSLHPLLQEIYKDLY
Chain of Peroxisome proliferator-activated receptor gamma/Nuclear receptor coactivator 3 (Q9Y6Q9 whole entry, further chain): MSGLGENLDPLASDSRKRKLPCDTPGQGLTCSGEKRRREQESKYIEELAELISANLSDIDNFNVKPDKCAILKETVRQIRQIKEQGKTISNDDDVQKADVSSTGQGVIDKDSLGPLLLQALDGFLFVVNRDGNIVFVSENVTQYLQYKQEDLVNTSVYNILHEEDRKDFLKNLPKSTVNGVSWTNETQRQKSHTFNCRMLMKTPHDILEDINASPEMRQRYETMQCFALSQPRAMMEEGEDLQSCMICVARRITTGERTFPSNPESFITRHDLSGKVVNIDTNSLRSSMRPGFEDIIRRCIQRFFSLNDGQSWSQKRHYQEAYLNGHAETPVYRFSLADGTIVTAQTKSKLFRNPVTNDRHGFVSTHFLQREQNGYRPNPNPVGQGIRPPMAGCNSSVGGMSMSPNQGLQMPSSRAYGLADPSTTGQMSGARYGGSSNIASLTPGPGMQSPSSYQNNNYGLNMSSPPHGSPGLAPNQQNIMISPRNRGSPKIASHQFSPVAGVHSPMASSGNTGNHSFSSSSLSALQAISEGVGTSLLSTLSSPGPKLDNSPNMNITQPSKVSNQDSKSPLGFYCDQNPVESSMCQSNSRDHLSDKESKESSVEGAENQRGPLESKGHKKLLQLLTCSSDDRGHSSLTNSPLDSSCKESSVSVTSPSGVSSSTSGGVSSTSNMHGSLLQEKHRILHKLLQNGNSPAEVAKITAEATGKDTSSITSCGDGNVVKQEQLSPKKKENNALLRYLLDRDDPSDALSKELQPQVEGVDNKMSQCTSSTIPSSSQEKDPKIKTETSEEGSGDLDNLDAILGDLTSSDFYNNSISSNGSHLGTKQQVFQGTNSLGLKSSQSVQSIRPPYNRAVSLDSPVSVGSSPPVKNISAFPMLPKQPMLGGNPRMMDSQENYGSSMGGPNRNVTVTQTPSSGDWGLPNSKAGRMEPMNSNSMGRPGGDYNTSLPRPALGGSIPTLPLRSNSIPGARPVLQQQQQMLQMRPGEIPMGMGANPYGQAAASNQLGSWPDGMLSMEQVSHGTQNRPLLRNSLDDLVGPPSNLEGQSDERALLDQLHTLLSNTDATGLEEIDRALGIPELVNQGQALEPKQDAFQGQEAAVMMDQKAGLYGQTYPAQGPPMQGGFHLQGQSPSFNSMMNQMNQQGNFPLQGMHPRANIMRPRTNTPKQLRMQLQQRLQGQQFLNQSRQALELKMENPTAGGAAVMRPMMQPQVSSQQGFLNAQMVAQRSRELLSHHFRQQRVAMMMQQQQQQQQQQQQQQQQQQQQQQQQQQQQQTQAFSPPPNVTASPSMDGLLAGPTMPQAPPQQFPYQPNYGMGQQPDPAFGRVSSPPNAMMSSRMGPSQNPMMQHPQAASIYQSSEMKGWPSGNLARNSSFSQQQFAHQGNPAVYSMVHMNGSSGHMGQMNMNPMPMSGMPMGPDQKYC
Chain of Aspartyl aminopeptidase (Q8I2J3 whole entry): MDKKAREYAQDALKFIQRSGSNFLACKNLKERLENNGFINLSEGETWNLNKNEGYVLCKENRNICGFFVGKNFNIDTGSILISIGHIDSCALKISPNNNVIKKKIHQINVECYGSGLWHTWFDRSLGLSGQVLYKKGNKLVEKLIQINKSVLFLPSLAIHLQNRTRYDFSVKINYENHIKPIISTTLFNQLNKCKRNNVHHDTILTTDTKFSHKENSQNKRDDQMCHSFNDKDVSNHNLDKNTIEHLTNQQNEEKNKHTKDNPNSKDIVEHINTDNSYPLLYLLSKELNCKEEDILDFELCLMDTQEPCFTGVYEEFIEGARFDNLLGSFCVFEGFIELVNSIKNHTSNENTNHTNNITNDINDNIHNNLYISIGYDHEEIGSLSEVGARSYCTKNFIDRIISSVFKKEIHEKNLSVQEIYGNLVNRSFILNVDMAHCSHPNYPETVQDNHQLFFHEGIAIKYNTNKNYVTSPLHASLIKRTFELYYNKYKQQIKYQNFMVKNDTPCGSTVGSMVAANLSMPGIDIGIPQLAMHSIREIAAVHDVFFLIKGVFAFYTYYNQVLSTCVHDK
Chain of Luciferin 4-monooxygenase (P08659 whole entry): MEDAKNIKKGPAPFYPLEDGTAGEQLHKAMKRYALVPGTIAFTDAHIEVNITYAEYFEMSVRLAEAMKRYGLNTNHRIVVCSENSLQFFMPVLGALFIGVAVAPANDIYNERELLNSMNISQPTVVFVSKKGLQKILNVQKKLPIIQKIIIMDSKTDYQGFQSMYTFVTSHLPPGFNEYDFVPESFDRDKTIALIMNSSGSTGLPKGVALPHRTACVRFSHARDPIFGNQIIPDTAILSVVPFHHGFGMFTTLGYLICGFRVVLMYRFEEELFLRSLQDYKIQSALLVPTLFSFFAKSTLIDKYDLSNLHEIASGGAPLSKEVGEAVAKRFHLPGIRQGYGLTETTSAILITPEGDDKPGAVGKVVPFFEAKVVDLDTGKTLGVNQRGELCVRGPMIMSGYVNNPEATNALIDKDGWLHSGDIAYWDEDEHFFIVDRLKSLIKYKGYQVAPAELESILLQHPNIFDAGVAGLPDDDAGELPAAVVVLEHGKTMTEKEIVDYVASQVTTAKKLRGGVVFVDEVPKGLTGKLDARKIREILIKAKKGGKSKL

Cn1cc(Cl)c(C(=O)NNC(=S)NC2CCCCC2)n1
EC50 [1]: 41 µM (active)

Cc1nc(/N=N\c2ccc(C(=O)O)cc2)c(COP(=O)(O)O)c(C=O)c1O
AC50 (Cytochrome P450 3A4): 10 µM (inconclusive) | AC50 (Cytochrome P450 2D6): 39.8 µM (inconclusive)

COc1ccc(/C=N/NC(=O)c2n[nH]c3c2CCC3)cc1O
EC50 [2]: > 8 µM (not active) | EC50 (HEK293 [3]): > 8 µM (inactive) | EC50 (HEK293 [4]): 4.21 µM (not active)

O=C(Cn1ncc2c(=O)oc3ccccc3c21)Nc1nc2ccccc2s1
EC50 (Estrogen receptor): 6.23 µM (active)

Cc1cc(=O)[nH]c2c1c(C)nn2C1CCCC1
EC50 [5]: > 79.4 µM (not active) | EC50 [6]: > 79.4 µM (not active) | EC50 [7]: > 79.4 µM (not active)

COc1ccc(Cl)cc1NC(=O)Nn1cnnc1
IC50 (Aspartyl aminopeptidase): 0.832 µM (active) | IC50 (Procathepsin L): > 59.6 µM (not active)

COc1cnc(-c2ccccn2)nc1Sc1ccc(Cl)cc1
EC50 [8]: 18.6 µM (active) | EC50 (Streptococcus): 15.3 µM (active) | EC50 [9]: 21.6 µM (active) | IC50 [10]: > 67 µM (not active) | EC50 (Streptokinase A): > 150 µM (not active) | EC50 [11]: 9.35 µM (active) | IC50 [12]: 6.47 µM (active)

COc1ccc(-c2nc(NC(=O)c3nnc(O)c4ccccc34)sc2C)cc1
IC50 [13]: > 100 µM (active) | CC50 [14]: 40.5 µM (active)

O=C(COC(=O)/C=C/c1nc2ccccc2s1)Nc1cccc(Cl)c1Cl
IC50 [15]: > 100 µM (active)

COc1ccccc1OCCCCN1CCN(C(c2ccccc2)c2ccccc2)CC1
IC50 [16]: > 35 µM (not active) | IC50 [17]: > 35 µM (not active)

CC(=O)Nc1ccc(/C=N/Nc2nc3ccccc3s2)cc1
IC50 [18]: > 67.5 µM (inactive) | EC50 (cells): > 67.5 µM (inactive) | EC50 (Wee1-like protein kinase): > 49.7 µM (not active) | EC50 [19]: > 67.5 µM (inactive) | EC50 [20]: > 49.7 µM (not active) | EC50 [21]: > 67.5 µM (inactive)

COc1cccc(C(NC(=O)c2ccccc2)c2ccc3cccnc3c2O)c1 (centres undefined)
CC50 (Vero [22]): 6.07 µM (active) | CC50 (Vero [23]): 1.94 µM (active) | CC50 (Vero [24]): 2.2 µM (active) | IC50 [25]: 5.63 µM (active)

From ChEMBL document CHEMBL1201862, “PubChem BioAssay data set” (2004)
